Measured values published in paper PMC9296036, “A peptide interfering with the dimerization of oncogenic KITENIN protein and its stability suppresses colorectal tumour progression” (Clinical and Translational Medicine, 2022).

Columns and labels:
[1] = Detection of KDIP and truncated forms in tumour and liver tissue by LC-MS/MS (MRM) after intravenous injection; type: in vivo, mouse; details: tissues collected 20 min after fifth intravenous injection of KDIP 5 mg/kg, below the limit of detection
Protocol: At 20 min after fifth intravenous injection of KDIP, tumour and liver tissues were collected, immediately frozen using liquid nitrogen and ground with a pestle and mortar. One part of resultant powder by weight was homogenized with two parts of lysis buffer containing 8‐M urea, 25‐mM Tris–HCl (pH 8.5) by volume and was placed in Eppendorf tubes. This lysate was sonicated three times for 2 s with 2‐s intervals of rest at 20% amplitude on ice. Insoluble debris was removed by obtaining supernatant after centrifugation at 14 000 g, 4°C for 15 min.
Peptide extraction from serum or tissue lysate was performed by solid‐phase extraction using Oasis HLB Cartridge 1‐cm^3 (30 mg). HLB cartridges were conditioned using ACN (1 ml) and 50% ACN, .5% FA (1 ml), followed by equilibration using .5% FA (2 ml). A volume of 10‐μl serum and 20 μl of tissue lysate were added by .5% FA to be 1 ml and were loaded on equilibrated cartridges. Cartridges were washed with .5% FA (3 ml), and then peptide was eluted by 50% ACN, .5% FA (500 μl). Eluates were vacuum‐dried using Speed‐Vac and were stored at −80°C until use. Dried samples were reconstituted in .5% FA 50 and 5 μl of sample was loaded on column for LC–MS/MS analysis.
Each sample was analysed using an Agilent 1100 Series high‐performance liquid chromatography pump (Agilent Technologies, USA) coupled to an LTQ linear ion trap mass spectrometer (Thermo Finnigan, USA). Separation of peptide was carried out on a homemade C18‐fused silica column (100‐μm internal diameter) with nano‐electrospray ionization interface. […] Peptide was quantified by multiple reaction monitoring (MRM) in positive ion mode, with a spray voltage of 2.3 kV. […] Furthermore, truncated forms ([…], […]) of KDIP that were detected during stability test were also analysed by following transitions: 468.5 → 404.8 (b16 ^+5), 468.5 → 444.85 (b18 ^+5), 468.5 → 505.7 (b16 ^+4), 468.5 → 551.35 (b18 + H2O^+4), 468.5 → 555.7 (b18 ^+4), 528.45 → 448.85 (b14 ^+4), 528.45 → 499.0 (b16 ^+4), 528.45 → 598.15 (b14 ^+3), 528.45 → 659.25 (b16 + H2O^+3) and 528.45 → 664.95 (b16 ^+3). […]

[2] = biological target: the molecule itself; assay: SDS-PAGE in the reducing/denaturing condition and Western blot; non-transfected HCT116 and Caco2 cells, regular SDS-PAGE gel, dimer-sized band
[3] = biological target: the molecule itself; assay: native gel or EMSA; lysates of Caco2 cells transfected with KITENIN-V5, with or without KDIP, on a native SDS-PAGE gel in the non-reducing/non-denaturing condition; immunoblot with anti-KITENIN antibody

Row | Molecule | detection in regressed tumour tissues or liver by mass spectrometry [1] | also measured
1 | endogenous KITENIN (natural protein, UniProt Q8TAA9 1-524, looked up, KITENIN (Vangl1), endogenous; also called endogenous KITENIN dimer; source: endogenous, HEK293T, HCT116 or Caco2 lysate) MDTESTYSGYSYYSSHSKKSHRQGERTRERHKSPRNKDGRGSEKSVTIQPPTGEPLLGNDSTRTEEVQDDNWGETTTAITGTSEHSISQEDIARISKDMEDSVGLDCKRYLGLTVASFLGLLVFLTPIAFILLPPILWRDELEPCGTICEGLFISMAFKLLILLIGTWALFFRKRRADMPRVFVFRALLLVLIFLFVVSYWLFYGVRILDSRDRNYQGIVQYAVSLVDALLFIHYLAIVLLELRQLQPMFTLQVVRSTDGESRFYSLGHLSIQRAALVVLENYYKDFTIYNPNLLTASKFRAAKHMAGLKVYNVDGPSNNATGQSRAMIAAAARRRDSSHNELYYEEAEHERRVKKRKARLVVAVEEAFIHIQRLQAEEQQKAPGEVMDPREAAQAIFPSMARALQKYLRITRQQNYHSMESILQHLAFCITNGMTPKAFLERYLSAGPTLQYDKDRWLSTQWRLVSDEAVTNGLRDGIVFVLKCLDFSLVVNVKKIPFIILSEEFIDPKSHKFVLRLQSETSV | – | stoichiometry N [2]: 2
2 | V5-tagged KITENIN (natural protein, UniProt Q8TAA9 1-524, looked up, KITENIN (Vangl1), wild type; also called KITENIN-V5; WT-KITENIN) MDTESTYSGYSYYSSHSKKSHRQGERTRERHKSPRNKDGRGSEKSVTIQPPTGEPLLGNDSTRTEEVQDDNWGETTTAITGTSEHSISQEDIARISKDMEDSVGLDCKRYLGLTVASFLGLLVFLTPIAFILLPPILWRDELEPCGTICEGLFISMAFKLLILLIGTWALFFRKRRADMPRVFVFRALLLVLIFLFVVSYWLFYGVRILDSRDRNYQGIVQYAVSLVDALLFIHYLAIVLLELRQLQPMFTLQVVRSTDGESRFYSLGHLSIQRAALVVLENYYKDFTIYNPNLLTASKFRAAKHMAGLKVYNVDGPSNNATGQSRAMIAAAARRRDSSHNELYYEEAEHERRVKKRKARLVVAVEEAFIHIQRLQAEEQQKAPGEVMDPREAAQAIFPSMARALQKYLRITRQQNYHSMESILQHLAFCITNGMTPKAFLERYLSAGPTLQYDKDRWLSTQWRLVSDEAVTNGLRDGIVFVLKCLDFSLVVNVKKIPFIILSEEFIDPKSHKFVLRLQSETSV | – | stoichiometry N [3]: 2

Second part, led by results:

Row | detection in regressed tumour tissues or liver by mass spectrometry [1] | Molecule | also measured
3 | not detected | ARVRRRGPRRWRLVSDEAV [19‐mer, N-truncated form of KDIP found after incubation with mouse serum] | –
4 | not detected | VRRRGPRRWRLVSDEAV [17‐mer, N-truncated form of KDIP found after incubation with mouse serum] | –
